In brackets after ≈: the same amount, converted by molar mass.
What was measured:
Assay type in all cases: functional
Streptococcus pyogenes = assay: Antibacterial activity against Streptococcus pyogenes
Staphylococcus aureus [1] = assay: Antibacterial activity against Staphylococcus aureus
Staphylococcus aureus [2] = assay: Antibacterial activity against methicillin-resistant Staphylococcus aureus isolate cpu0446 after 18 to 20 hrs by agar dilution method
[3] = system: Staphylococcus epidermidis; assay: Antibacterial activity against methicillin-sensitive Staphylococcus epidermidis isolate cpu2089 after 18 to 20 hrs by agar dilution method
Staphylococcus aureus [4] = assay: Antibacterial activity against methicillin-resistant Staphylococcus aureus isolate cpu3256 after 18 to 20 hrs by agar dilution method
[5] = system: Staphylococcus epidermidis; assay: Antibacterial activity against methicillin-resistant Staphylococcus epidermidis isolate cpu2736 after 18 to 20 hrs by agar dilution method
Staphylococcus aureus [6] = assay: Antibacterial activity against methicillin-sensitive Staphylococcus aureus isolate cpu0211 after 18 to 20 hrs by agar dilution method
Staphylococcus aureus [7] = assay: Antibacterial activity against methicillin-sensitive Staphylococcus aureus isolate cpu1344 after 18 to 20 hrs by agar dilution method
[8] = system: Staphylococcus epidermidis; assay: Antibacterial activity against methicillin-sensitive Staphylococcus epidermidis isolate cpu0347 after 18 to 20 hrs by agar dilution method
[9] = system: Staphylococcus epidermidis; assay: Antibacterial activity against methicillin-sensitive Staphylococcus epidermidis isolate cpu0315 after 18 to 20 hrs by agar dilution method
Staphylococcus aureus [10] = assay: Antibacterial activity against methicillin-resistant Staphylococcus aureus isolate cpu1098 after 18 to 20 hrs by agar dilution method
Staphylococcus aureus [11] = assay: Antibacterial activity against methicillin-sensitive Staphylococcus aureus isolate cpu0587 after 18 to 20 hrs by agar dilution method
[12] = system: Staphylococcus epidermidis; assay: Antibacterial activity against methicillin-resistant Staphylococcus epidermidis isolate cpu3569 after 18 to 20 hrs by agar dilution method
[13] = system: Staphylococcus epidermidis; assay: Antibacterial activity against methicillin-resistant Staphylococcus epidermidis isolate cpu2623 after 18 to 20 hrs by agar dilution method
[14] = system: Staphylococcus epidermidis; assay: Antibacterial activity against methicillin-sensitive Staphylococcus epidermidis isolate cpu1561 after 18 to 20 hrs by agar dilution method
[15] = system: Staphylococcus epidermidis; assay: Antibacterial activity against methicillin-resistant Staphylococcus epidermidis isolate cpu3889 after 18 to 20 hrs by agar dilution method
Staphylococcus aureus [16] = assay: Antibacterial activity against methicillin-sensitive Staphylococcus aureus isolate cpu1044 after 18 to 20 hrs by agar dilution method
Staphylococcus aureus [17] = assay: Antibacterial activity against methicillin-resistant Staphylococcus aureus isolate cpu0887 after 18 to 20 hrs by agar dilution method
Staphylococcus aureus [18] = assay: Ratio of amoxicillin MIC to compound MIC for methicillin-sensitive Staphylococcus aureus isolate cpu0211
[19] = system: Staphylococcus epidermidis; assay: Ratio of amoxicillin MIC to compound MIC for methicillin-sensitive Staphylococcus epidermidis isolate cpu0347
[20] = system: Staphylococcus epidermidis; assay: Ratio of amoxicillin MIC to compound MIC for methicillin-sensitive Staphylococcus epidermidis isolate cpu0315
Staphylococcus aureus [21] = assay: Ratio of amoxicillin MIC to compound MIC for methicillin-sensitive Staphylococcus aureus isolate cpu1044
[22] = system: Staphylococcus epidermidis; assay: Ratio of amoxicillin MIC to compound MIC for methicillin-sensitive Staphylococcus epidermidis isolate cpu2089
Staphylococcus aureus [23] = assay: Ratio of amoxicillin MIC to compound MIC for methicillin-sensitive Staphylococcus aureus isolate cpu1344
[24] = system: Staphylococcus epidermidis; assay: Ratio of amoxicillin MIC to compound MIC for methicillin-sensitive Staphylococcus epidermidis isolate cpu1561
Staphylococcus aureus [25] = assay: Ratio of amoxicillin MIC to compound MIC for methicillin-sensitive Staphylococcus aureus isolate cpu0587

Compound | MIC (Staphylococcus aureus [2]) [µg/mL] | MIC [3] [µg/mL] | MIC (Staphylococcus aureus [4]) [µg/mL] | MIC [5] [µg/mL] | MIC (Staphylococcus aureus [6]) [µg/mL] | MIC (Staphylococcus aureus [7]) [µg/mL] | MIC [8] [µg/mL] | MIC [9] [µg/mL] | MIC (Staphylococcus aureus [10]) [µg/mL] | MIC (Staphylococcus aureus [11]) [µg/mL] | MIC [12] [µg/mL] | MIC [13] [µg/mL] | MIC [14] [µg/mL] | MIC [15] [µg/mL] | MIC (Staphylococcus aureus [16]) [µg/mL] | MIC (Staphylococcus aureus [17]) [µg/mL] | further results
C=C[C@]1(C)C[C@@H](OC(=O)CS[C@@H]2C[C@H]3CC[C@@H](C2)N3C)[C@]2(C)[C@H](C)CC[C@]3(CCC(=O)[C@H]32)[C@@H](C)[C@@H]1O [RETAPAMULIN] | – | – | – | – | – | – | – | – | – | – | – | – | – | – | – | – | MIC (Streptococcus pyogenes): 0.016 µg/mL (≈ 0.0309 µM); MIC (Staphylococcus aureus [1]): 0.12 µg/mL (≈ 0.232 µM)
C=C[C@]1(C)C[C@@H](OC(=O)CSCc2csc(NC(=O)CNCC(=O)OC)n2)[C@]2(C)[C@H](C)CC[C@]3(CCC(=O)[C@H]32)[C@@H](C)[C@@H]1O | 1 (≈ 1.57 µM) | 0.25 (≈ 0.393 µM) | 0.5 (≈ 0.786 µM) | 0.5 (≈ 0.786 µM) | 0.25 (≈ 0.393 µM) | 0.5 (≈ 0.786 µM) | 0.5 (≈ 0.786 µM) | 4 (≈ 6.29 µM) | 0.5 (≈ 0.786 µM) | 0.25 (≈ 0.393 µM) | 0.5 (≈ 0.786 µM) | 0.5 (≈ 0.786 µM) | 1 (≈ 1.57 µM) | 1 (≈ 1.57 µM) | 0.5 (≈ 0.786 µM) | 1 (≈ 1.57 µM) | –
C=C[C@]1(C)C[C@@H](OC(=O)CSCc2csc(NC(=O)CN(CCC)CCC)n2)[C@]2(C)[C@H](C)CC[C@]3(CCC(=O)[C@H]32)[C@@H](C)[C@@H]1O | 0.5 (≈ 0.772 µM) | 0.5 (≈ 0.772 µM) | 1 (≈ 1.54 µM) | 2 (≈ 3.09 µM) | 0.5 (≈ 0.772 µM) | 1 (≈ 1.54 µM) | 0.5 (≈ 0.772 µM) | 8 (≈ 12.3 µM) | 1 (≈ 1.54 µM) | 0.5 (≈ 0.772 µM) | 4 (≈ 6.17 µM) | 0.5 (≈ 0.772 µM) | 4 (≈ 6.17 µM) | 2 (≈ 3.09 µM) | 0.5 (≈ 0.772 µM) | 0.5 (≈ 0.772 µM) | –
C=C[C@]1(C)C[C@@H](OC(=O)CSCc2csc(NC(=O)CN(CC)CC)n2)[C@]2(C)[C@H](C)CC[C@]3(CCC(=O)[C@H]32)[C@@H](C)[C@@H]1O | 0.5 (≈ 0.807 µM) | 0.25 (≈ 0.403 µM) | 2 (≈ 3.23 µM) | 0.25 (≈ 0.403 µM) | 1 (≈ 1.61 µM) | 0.25 (≈ 0.403 µM) | 0.25 (≈ 0.403 µM) | 0.25 (≈ 0.403 µM) | 0.5 (≈ 0.807 µM) | 8 (≈ 12.9 µM) | 0.25 (≈ 0.403 µM) | 0.25 (≈ 0.403 µM) | 0.25 (≈ 0.403 µM) | 2 (≈ 3.23 µM) | 1 (≈ 1.61 µM) | 0.25 (≈ 0.403 µM) | –
C=C[C@]1(C)C[C@@H](OC(=O)CSCc2csc(NC(=O)CN(CCCC)CCCC)n2)[C@]2(C)[C@H](C)CC[C@]3(CCC(=O)[C@H]32)[C@@H](C)[C@@H]1O | 8 (≈ 11.8 µM) | 4 (≈ 5.92 µM) | 8 (≈ 11.8 µM) | 16 (≈ 23.7 µM) | 4 (≈ 5.92 µM) | 16 (≈ 23.7 µM) | 8 (≈ 11.8 µM) | 8 (≈ 11.8 µM) | 8 (≈ 11.8 µM) | 4 (≈ 5.92 µM) | 8 (≈ 11.8 µM) | 4 (≈ 5.92 µM) | 16 (≈ 23.7 µM) | 16 (≈ 23.7 µM) | 4 (≈ 5.92 µM) | 32 (≈ 47.3 µM) | –
C=C[C@]1(C)C[C@@H](OC(=O)CSCc2csc(NC(=O)CN3CCCCC3)n2)[C@]2(C)[C@H](C)CC[C@]3(CCC(=O)[C@H]32)[C@@H](C)[C@@H]1O | 0.5 (≈ 0.791 µM) | 0.125 (≈ 0.198 µM) | 0.25 (≈ 0.396 µM) | 0.0625 (≈ 0.0989 µM) | 0.125 (≈ 0.198 µM) | 0.0625 (≈ 0.0989 µM) | 0.0625 (≈ 0.0989 µM) | 0.0625 (≈ 0.0989 µM) | 0.25 (≈ 0.396 µM) | 2 (≈ 3.17 µM) | 0.0625 (≈ 0.0989 µM) | 0.0625 (≈ 0.0989 µM) | 0.0625 (≈ 0.0989 µM) | 0.0625 (≈ 0.0989 µM) | 0.125 (≈ 0.198 µM) | 0.0625 (≈ 0.0989 µM) | Ratio (Staphylococcus aureus [18]): 8; Ratio [19]: 8; Ratio [20]: 8; Ratio (Staphylococcus aureus [21]): 8; Ratio [22]: 8; Ratio (Staphylococcus aureus [23]): 8; Ratio [24]: 8; Ratio (Staphylococcus aureus [25]): 8

Source: ChEMBL document CHEMBL2086231, “Novel pleuromutilin derivatives as antibacterial agents: synthesis, biological evaluation and molecular docking studies” (2012)
